Assay results published in US20060172993A1 (priority 2002, published 2006).

Tested on: Patients diagnosed with Alzheimer's Disease
Assay: Adverse events / safety monitoring in the trial
Assay type: in vivo, human
Protocol: Subjects in the Placebo group received 21 weeks (5 months) of placebo medication.
The safety of the drug was also monitored throughout the study. Blood samples for biochemistry and haematology and random urine sample for urinalysis were taken at each visit and at completion for all efficacy testing. Systolic and diastolic blood pressure were measured in the sitting position, pulse and vital signs were recorded at each visit.

For COc1ccc2c3c1O[C@H]1C[C@@H](O)C=C[C@@]31CCN(C)C2 [GAL, galantamine], the “Serious adverse event Basal cell carcinoma, % of patients” value (16 mg/day) was “(0.0%)”, the “Serious adverse event Basal cell carcinoma, number of patients” value (16 mg/day) was 0 and the “Serious adverse event Breast neoplasm female, % of patients” value (16 mg/day) was “(0.0%)”. The “Serious adverse event Breast neoplasm female, number of patients” value (16 mg/day) was 0, the “Serious adverse event Cardiac failure, % of patients” value (16 mg/day) was “(1.1%)” and the “Serious adverse event Cardiac failure, number of patients” value (16 mg/day) was 3. The “Serious adverse event Dehydration, % of patients” value (16 mg/day) was “(1.1%)”, the “Serious adverse event Dehydration, number of patients” value (16 mg/day) was 3 and the “Serious adverse event Diarrhea, % of patients” value (16 mg/day) was “(1.1%)”. The “Serious adverse event Diarrhea, number of patients” value (16 mg/day) was 3, the “Serious adverse event Dyspnea, % of patients” value (16 mg/day) was “(0.7%)” and the “Serious adverse event Dyspnea, number of patients” value (16 mg/day) was 2. For the same compound, the “Serious adverse event Fall, % of patients” value (16 mg/day) was “(0.4%)”, the “Serious adverse event Fall, number of patients” value (16 mg/day) was 1 and the “Serious adverse event Gi haemorrhage, % of patients” value (16 mg/day) was “(0.0%)”. For the same compound, the “Serious adverse event Gi haemorrhage, number of patients” value (16 mg/day) was 0, the “Serious adverse event Injury, % of patients” value (16 mg/day) was “(0.4%)” and the “Serious adverse event Injury, number of patients” value (16 mg/day) was 1. The “Serious adverse event Myocardial infarction, % of patients” value (16 mg/day) was “(0.4%)”, the “Serious adverse event Myocardial infarction, number of patients” value (16 mg/day) was 1 and the “Serious adverse event Nausea, % of patients” value (16 mg/day) was “(0.7%)”. For the same compound, the “Serious adverse event Nausea, number of patients” value (16 mg/day) was 2, the “Serious adverse event Pneumonia, % of patients” value (16 mg/day) was “(0.7%)” and the “Serious adverse event Pneumonia, number of patients” value (16 mg/day) was 2. For the same compound, the “Serious adverse event Sepsis, % of patients” value (16 mg/day) was “(0.0%)”, the “Serious adverse event Sepsis, number of patients” value (16 mg/day) was 0 and the “Serious adverse event Surgical intervention, % of patients” value (16 mg/day) was “(1.1%)”. The “Serious adverse event Surgical intervention, number of patients” value (16 mg/day) was 3, the “Serious adverse event Syncope, % of patients” value (16 mg/day) was “(1.4%)” and the “Serious adverse event Syncope, number of patients” value (16 mg/day) was 4. For the same compound, the “Serious adverse event Thrombophlebitis deep, % of patients” value (16 mg/day) was “(0.0%)”, the “Serious adverse event Thrombophlebitis deep, number of patients” value (16 mg/day) was 0 and the “Serious adverse event Transient ischemic attack, % of patients” value (16 mg/day) was “(0.7%)”. The “Serious adverse event Transient ischemic attack, number of patients” value (16 mg/day) was 2, the “Serious adverse event Urinary tract infection, % of patients” value (16 mg/day) was “(0.7%)” and the “Serious adverse event Urinary tract infection, number of patients” value (16 mg/day) was 2. For the same compound, the “Serious adverse event Vomiting, % of patients” value (16 mg/day) was “(0.7%)”, the “Serious adverse event Vomiting, number of patients” value (16 mg/day) was 2 and the “Total patients with any SAE, %” value (16 mg/day) was “(10.0%)”. For the same compound, the “Total patients with any SAE, number” value (16 mg/day) was 28, the “Adverse event Agitation, % of patients” value (24 mg/day) was “(8.1%)” and the “Adverse event Agitation, number of patients” value (24 mg/day) was 22. The “Adverse event Anorexia, % of patients” value (24 mg/day) was “(8.8%)”, the “Adverse event Anorexia, number of patients” value (24 mg/day) was 24 and the “Adverse event Depression, % of patients” value (24 mg/day) was “(8.%)”. For the same compound, the “Adverse event Depression, number of patients” value (24 mg/day) was 22, the “Adverse event Diarrhea, % of patients” value (24 mg/day) was “(5.5%)” and the “Adverse event Diarrhea, number of patients” value (24 mg/day) was 15. The “Adverse event Dizziness, % of patients” value (24 mg/day) was “(7.0%)”, the “Adverse event Dizziness, number of patients” value (24 mg/day) was 19 and the “Adverse event Dyspepsia, % of patients” value (24 mg/day) was “(5.5%)”. For the same compound, the “Adverse event Dyspepsia, number of patients” value (24 mg/day) was 15, the “Adverse event Edema peripheral, % of patients” value (24 mg/day) was “(2.6%)” and the “Adverse event Edema peripheral, number of patients” value (24 mg/day) was 7. The “Adverse event Fall, % of patients” value (24 mg/day) was “(4.4%)”, the “Adverse event Fall, number of patients” value (24 mg/day) was 12 and the “Adverse event Headache, % of patients” value (24 mg/day) was “(4.8%)”. For the same compound, the “Adverse event Headache, number of patients” value (24 mg/day) was 13, the “Adverse event Injury, % of patients” value (24 mg/day) was “(5.9%)” and the “Adverse event Injury, number of patients” value (24 mg/day) was 16. For the same compound, the “Adverse event Nausea, % of patients” value (24 mg/day) was “(16.5%)”, the “Adverse event Nausea, number of patients” value (24 mg/day) was 45 and the “Adverse event Rhinitis, % of patients” value (24 mg/day) was “(4.0%)”. For the same compound, the “Adverse event Rhinitis, number of patients” value (24 mg/day) was 11, the “Adverse event Urinary tract infection, % of patients” value (24 mg/day) was “(8.1%)” and the “Adverse event Urinary tract infection, number of patients” value (24 mg/day) was 22. For the same compound, the “Adverse event Vomiting, % of patients” value (24 mg/day) was “(9.9%)”, the “Adverse event Vomiting, number of patients” value (24 mg/day) was 27 and the “Adverse event Weight decrease, % of patients” value (24 mg/day) was “(4.8%)”. For the same compound, the “Adverse event Weight decrease, number of patients” value (24 mg/day) was 13, the “Adverse event of clinical interest Bradycardia, % of patients” value (24 mg/day) was “(2.9%)” and the “Adverse event of clinical interest Bradycardia, number of patients” value (24 mg/day) was 8. For the same compound, the “Adverse event of clinical interest Convulsions, % of patients” value (24 mg/day) was “(0.4%)”, the “Adverse event of clinical interest Convulsions, number of patients” value (24 mg/day) was 1 and the “Adverse event of clinical interest Fatigue, % of patients” value (24 mg/day) was “(4.8%)”. The “Adverse event of clinical interest Fatigue, number of patients” value (24 mg/day) was 13, the “Adverse event of clinical interest Muscle weakness, % of patients” value (24 mg/day) was “(0.4%)” and the “Adverse event of clinical interest Muscle weakness, number of patients” value (24 mg/day) was 1. The “Adverse event of clinical interest Syncope, % of patients” value (24 mg/day) was “(3.3%)”, the “Adverse event of clinical interest Syncope, number of patients” value (24 mg/day) was 9 and the “Serious adverse event Abdominal pain, % of patients” value (24 mg/day) was “(0.0%)”. For the same compound, the “Serious adverse event Abdominal pain, number of patients” value (24 mg/day) was 0, the “Serious adverse event Agitation, % of patients” value (24 mg/day) was “(0.0%)” and the “Serious adverse event Agitation, number of patients” value (24 mg/day) was 0. For the same compound, the “Serious adverse event Asthenia, % of patients” value (24 mg/day) was “(0.4%)”, the “Serious adverse event Asthenia, number of patients” value (24 mg/day) was 1 and the “Serious adverse event Basal cell carcinoma, % of patients” value (24 mg/day) was “(0.7%)”. For the same compound, the “Serious adverse event Basal cell carcinoma, number of patients” value (24 mg/day) was 2, the “Serious adverse event Breast neoplasm female, % of patients” value (24 mg/day) was “(0.0%)” and the “Serious adverse event Breast neoplasm female, number of patients” value (24 mg/day) was 0. For the same compound, the “Serious adverse event Cardiac failure, % of patients” value (24 mg/day) was “(0.0%)”, the “Serious adverse event Cardiac failure, number of patients” value (24 mg/day) was 0 and the “Serious adverse event Dehydration, % of patients” value (24 mg/day) was “(0.0%)”. For the same compound, the “Serious adverse event Dehydration, number of patients” value (24 mg/day) was 0, the “Serious adverse event Diarrhea, % of patients” value (24 mg/day) was “(0.0%)” and the “Serious adverse event Diarrhea, number of patients” value (24 mg/day) was 0. The “Serious adverse event Dyspnea, % of patients” value (24 mg/day) was “(1.1%)”, the “Serious adverse event Dyspnea, number of patients” value (24 mg/day) was 3 and the “Serious adverse event Fall, % of patients” value (24 mg/day) was “(1.1%)”. For the same compound, the “Serious adverse event Fall, number of patients” value (24 mg/day) was 3, the “Serious adverse event Gi haemorrhage, % of patients” value (24 mg/day) was “(0.7%)” and the “Serious adverse event Gi haemorrhage, number of patients” value (24 mg/day) was 2. For the same compound, the “Serious adverse event Injury, % of patients” value (24 mg/day) was “(1.8%)”, the “Serious adverse event Injury, number of patients” value (24 mg/day) was 5 and the “Serious adverse event Myocardial infarction, % of patients” value (24 mg/day) was “(0.4%)”. The “Serious adverse event Myocardial infarction, number of patients” value (24 mg/day) was 1, the “Serious adverse event Nausea, % of patients” value (24 mg/day) was “(0.0%)” and the “Serious adverse event Nausea, number of patients” value (24 mg/day) was 0. For the same compound, the “Serious adverse event Pneumonia, % of patients” value (24 mg/day) was “(1.1%)”, the “Serious adverse event Pneumonia, number of patients” value (24 mg/day) was 3 and the “Serious adverse event Sepsis, % of patients” value (24 mg/day) was “(0.0%)”. The “Serious adverse event Sepsis, number of patients” value (24 mg/day) was 0, the “Serious adverse event Surgical intervention, % of patients” value (24 mg/day) was “(0.0%)” and the “Serious adverse event Surgical intervention, number of patients” value (24 mg/day) was 0. The “Serious adverse event Syncope, % of patients” value (24 mg/day) was “(1.8%)”, the “Serious adverse event Syncope, number of patients” value (24 mg/day) was 5 and the “Serious adverse event Thrombophlebitis deep, % of patients” value (24 mg/day) was “(0.7%)”. The “Serious adverse event Thrombophlebitis deep, number of patients” value (24 mg/day) was 2, the “Serious adverse event Transient ischemic attack, % of patients” value (24 mg/day) was “(0.0%)” and the “Serious adverse event Transient ischemic attack, number of patients” value (24 mg/day) was 0. The “Serious adverse event Urinary tract infection, % of patients” value (24 mg/day) was “(0.0%)”, the “Serious adverse event Urinary tract infection, number of patients” value (24 mg/day) was 0 and the “Serious adverse event Vomiting, % of patients” value (24 mg/day) was “(0.4%)”. For the same compound, the “Serious adverse event Vomiting, number of patients” value (24 mg/day) was 1, the “Syncope incidence” value (24 mg/day) was “slight dose-related increase in incidence” and the “Total patients with any SAE, %” value (24 mg/day) was “(12.8%)”. For the same compound, the “Total patients with any SAE, number” value (24 mg/day) was 35, the “Occurrence of nausea, vomiting and anorexia” value (8, 16, 24 mg/day) was “mild dose-related occurrence at a relatively low incidence” and the “Bradycardia incidence compared with placebo” value (all galantamine doses) was “higher incidence”. For the same compound, the “Incidence of serious adverse events” value (all treatment groups) was “comparable across all treatment groups” and the “Deaths related to trial medication” value (throughout the trial) was “No death was considered by the investigator to be related to trail medication”.
